This assay addresses menin protein (Homo sapiens (Human), UniProt O00255). The assay can be described thus: biochemical. As to conditions: FP competitive binding; menin protein 4 nM, FAM-MM2 probe 2 nM; read-out: Menin Binding Affinity IC50. The format is binding. The method in brief: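 Test compounds displaced FAM-MM2 (2 nM) from 4 nM menin after 30 min equilibration at room temperature in PBS buffer containing bovine γ-globulin, 4% DMSO and Triton X-100. Binding was followed by fluorescence polarization. Competition curves were fitted by nonlinear regression to give IC50 and Ki.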

The source of these data is US10899738B2 (THE REGENTS OF THE UNIVERSITY OF MICHIGAN, priority 2016, dated 2021).

menin protein, sequence (O00255 whole entry): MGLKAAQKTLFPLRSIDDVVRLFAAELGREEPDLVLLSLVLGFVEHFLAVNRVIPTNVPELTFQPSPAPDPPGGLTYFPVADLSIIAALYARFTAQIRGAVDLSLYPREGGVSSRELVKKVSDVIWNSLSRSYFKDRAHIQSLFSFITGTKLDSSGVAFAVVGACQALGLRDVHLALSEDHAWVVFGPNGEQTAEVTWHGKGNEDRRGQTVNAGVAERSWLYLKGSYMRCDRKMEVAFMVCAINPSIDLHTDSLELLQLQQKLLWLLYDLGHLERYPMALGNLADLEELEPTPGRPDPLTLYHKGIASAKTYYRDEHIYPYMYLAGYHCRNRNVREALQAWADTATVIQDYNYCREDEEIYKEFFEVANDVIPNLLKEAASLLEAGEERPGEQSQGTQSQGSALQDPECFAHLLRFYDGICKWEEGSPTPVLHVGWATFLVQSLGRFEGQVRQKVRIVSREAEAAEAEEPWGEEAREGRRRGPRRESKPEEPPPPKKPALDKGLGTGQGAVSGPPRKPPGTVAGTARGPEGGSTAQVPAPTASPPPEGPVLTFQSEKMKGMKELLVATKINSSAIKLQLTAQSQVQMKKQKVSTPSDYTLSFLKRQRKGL

One may read the IC50 as the concentration that gives 50% inhibition. In the case of `Cc1cc(S(=O)(=O)c2ccc(N3CC(CN4CCC(C5(C6=CCCC6)CN(C)Cc6ccccc65)CC4)C3)cc2)ccn1` (stereo not drawn) [compound 205, 4-(cyclopent-1-en-1-yl)-2-methyl-4-(1-((1-(4-((2-methylpyridin-4-yl)sulfonyl)phenyl)azetidin-3-yl)methyl)piperidin-4-yl)-1,2,3,4-tetrahydroisoquinoline], the concentration for half-maximal inhibition (IC50) was determined as 88 nM.
To `O=S(=O)(c1ccncc1)c1ccc(N2CC(CN3CCC(C4(C5CCCC5)CN(CC5COC5)Cc5ccccc54)CC3)C2)cc1` (stereo not drawn) [compound 52, 4-cyclopentyl-2-(oxetan-3-ylmethyl)-4-(1-((1-(4-(pyridin-4-ylsulfonyl)phenyl)azetidin-3-yl)methyl)piperidin-4-yl)-1,2,3,4-tetrahydroisoquinoline] belongs 25 nM; to `COC(=O)N[C@H]1CCC[C@@H]1C(C#N)(c1ccccc1)C1CCN(CCC#Cc2ccc(S(=O)(=O)C(F)(F)F)cc2)CC1` (mixture of isomers) [compound 405, methyl rac-((1S,2R)-2-(cyano(phenyl)(1-(4-(4-((trifluoromethyl)sulfonyl)phenyl)but-3-yn-1-yl)piperidin-4-yl)methyl)cyclopentyl)carbamate], 174 nM.
With `COC[C@H]1CCC[C@@H]1C(C#N)(c1ccccc1)C1CCN(CC2CN(c3ccc(S(=O)(=O)C4CC4)cc3)C2)CC1` (mixture of isomers) [compound 265, rac-2-(1-((1-(4-(cyclopropylsulfonyl)phenyl)azetidin-3-yl)methyl)piperidin-4-yl)-2-((1S,2S)-2-(methoxymethyl)cyclopentyl)-2-phenylacetonitrile] the figure was 4900 nM; with `CC(=O)OC[C@H]1CCC[C@@H]1C(C#N)(c1ccccc1)C1CCN(CC2CN(c3ccc(S(=O)(=O)C4CC4)cc3)C2)CC1` (mixture of isomers) [compound 261, rac-((1S,2S)-2-(cyano(1-((1-(4-(cyclopropylsulfonyl)phenyl)azetidin-3-yl)methyl)piperidin-4-yl)(phenyl)methyl)cyclopentyl) methyl acetate], 9300 nM; with `N#CC(c1ccccc1)(C1CCN(CC2CN(c3ccc(S(=O)(=O)c4ccncc4)cc3)C2)CC1)[C@@H]1CCC[C@H]1CO` (mixture of isomers) [compound 257, rac-2-((1R,2R)-2-(hydroxymethyl)cyclopentyl)-2-phenyl-2-(1-((1-(4-(pyridin-4-ylsulfonyl)phenyl)azetidin-3-yl)methyl)piperidin-4-yl)acetonitrile], 4600 nM.
With `N#CC(c1ccccc1)(C1CCN(CC2CN(c3ccc(S(=O)(=O)c4ccncc4)cc3)C2)CC1)[C@H]1CCC[C@@H]1OC(=O)C1CCC1` (mixture of isomers) [compound 209, rac-(1S,2R)-2-(cyano(phenyl)(1-((1-(4-(pyridin-ylsulfonyl)phenyl)azetidin-3-yl)methyl)piperidin-4-yl)methyl)cyclopentyl cyclobutanecarboxylate] the figure was 111 nM.
Turning to `CN1Cc2cccc(F)c2C(C2CCCC2)(C2CCN(CC3CN(c4ccc(C#N)cc4)C3)CC2)C1` (stereo not drawn) [compound 33, 4-(3-((4-(4-cyclopentyl-5-fluoro-2-methyl-1,2,3,4-tetrahydroisoquinolin-4-yl)piperidin-1-yl)methyl)azetidin-1-yl)benzonitrile], the IC50 was found to be 19 nM.
With `CCC(CC)C1(C2CCN(CCCOc3ccc(C#N)cc3)CC2)NCCc2ccccc21` (stereo not drawn) [compound 249, 4-(3-(4-(1-(pentan-3-yl)-1,2,3,4-tetrahydroisoquinolin-1-yl)piperidin-1-yl)propoxy)benzonitrile] the figure was 1900 nM.
Turning to `CCC(C)CC1(C2CCN(CCCOc3ccc(C#N)cc3)CC2)NCCc2ccccc21` (stereo not drawn) [compound 172, 4-(3-(4-(1-(2-methylbutyl)-1,2,3,4-tetrahydroisoquinolin-1-yl)piperidin-1-yl)propoxy)benzonitrile], the IC50 came to 11200 nM.
With `CC(=O)O[C@H]1CCC[C@@H]1C(C#N)(c1cccc(F)c1)C1CCN(CC2CN(c3ccc(C#N)cc3)C2)CC1` (mixture of isomers) [compound 415, rac-(1S,2R)-2-(cyano(1-((1-(4-cyanophenyl)azetidin-3-yl)methyl)piperidin-4-yl)(3-fluorophenyl)methyl) cyclopentyl acetate] the figure was 16 nM; with `N#Cc1ccc(N2CC(CN3CCC(C4(C5CCCC5)CN(C5COC5)Cc5ccccc54)CC3)C2)cc1` (stereo not drawn) [compound 44, 4-(3-((4-(4-cyclopentyl-2-(oxetan-3-yl)-1,2,3,4-tetrahydroisoquinolin-4-yl)piperidin-1-yl)methyl)azetidin-1-yl)benzonitrile], 910 nM; with `CC(=O)O[C@@H]1CCC[C@H]1C(C#N)(c1ccccc1F)C1CCN(CCCOc2ccc(C#N)cc2)CC1` (mixture of isomers) [compound 309, rac-(1R,2S)-2-(cyano(1-(3-(4-cyanophenoxy)propyl)piperidin-4-yl)(2-fluorophenyl)methyl) cyclopentyl acetate], 11400 nM.
Turning to `N#CC(c1ccccc1)(C1CCN(CC2CN(c3ccc(S(=O)(=O)c4ccncc4)cc3)C2)CC1)[C@@H]1CCC[C@H]1OC(=O)C1CC1` (mixture of isomers) [compound 198, rac-(1R,2S)-2-(cyano(phenyl)(1-((1-(4-(pyridin-4-ylsulfonyl)phenyl)azetidin-3-yl)methyl)piperidin-4-yl)methyl)cyclopentyl cyclopropanecarboxylate], the IC50 is 853 nM.
As for `CN1CCC(C2(C3C=CCCN3)CN(C)Cc3ccccc32)CC1` (stereo not drawn) [compound 167, 2-methyl-4-(1-methylpiperidin-4-yl)-4-(1,2,5,6-tetrahydropyridin-2-yl)-1,2,3,4-tetrahydroisoquinoline], the IC50 is 172000 nM.
With `N#Cc1ccc(N2CCC(N3CCC(C4(C5CCCC5)NCCc5ccccc54)CC3)CC2)cc1` (stereo not drawn) [compound 55, 4-(4-(1-cyclopentyl-1,2,3,4-tetrahydroisoquinolin-1-yl)-[1,4′-bipiperidin]-1′-yl)benzonitrile] the figure was 669 nM; with `C=C(C)CC1(C2CCN(CCCOc3ccc(C#N)cc3)CC2)NCCc2ccccc21` (stereo not drawn) [compound 173, 4-(3-(4-(1-(2-methylallyl)-1,2,3,4-tetrahydroisoquinolin-1-yl)piperidin-1-yl)propoxy)benzonitrile], 3000 nM.
To `COCC[C@H]1CCC[C@@H]1C(C#N)(c1ccccc1)C1CCN(CC2CN(c3ccc(S(=O)(=O)c4ccnc(C)c4)cc3)C2)CC1` (mixture of isomers) [compound 336, rac-2-((1S,2R)-2-(2-methoxyethyl)cyclopentyl)-2-(1-((1-(4-((2-methylpyridin-4-yl)sulfonyl)phenyl)azetidin-3-yl)methyl)piperidin-4-yl)-2-phenylacetonitrile] belongs 29400 nM.
With `CNC(=O)O[C@H]1CCC[C@@H]1C(Cn1ccnc1)(c1ccccc1)C1CCN(CC2CN(c3ccc(S(=O)(=O)c4ccccc4)cc3)C2)CC1` (mixture of isomers) [compound 236, rac-(1S,2R)-2-(2-(1H-imidazol-1-yl)-1-phenyl-1-(1-((1-(4-(phenylsulfonyl)phenyl)azetidin-3-yl)methyl)piperidin-4-yl)ethyl)cyclopentyl methylcarbamate] the figure was 12 nM; with `CS(=O)(=O)C[C@H]1CCC[C@@H]1C(C#N)(c1ccccc1)C1CCN(CC2CN(c3ccc(S(=O)(=O)c4ccncc4)cc3)C2)CC1` (mixture of isomers) [compound 255, rac-2-((1S,2S)-2-((methylsulfonyl)methyl)cyclopentyl)-2-phenyl-2-(1-((1-(4-(pyridin-4-ylsulfonyl)phenyl)azetidin-3-yl)methyl)piperidin-4-yl)acetonitrile], 4700 nM; with `N#CC(c1ccccc1)(C1CCN(CC2CN(c3ccc(S(=O)(=O)c4ccncc4)cc3)C2)CC1)[C@@H]1CCC[C@H]1OC(=O)N1CCC1` (mixture of isomers) [compound 222, rac-(1R,2S)-2-(cyano(phenyl)(1-((1-(4-(pyridin-4-ylsulfonyl)phenyl)azetidin-3-yl)methyl)piperidin-4-yl)methyl)cyclopentyl azetidine-1-carboxylate], 2000 nM.
For `CC(=O)O[C@@H]1CCC[C@H]1C(C#N)(c1ccccc1F)C1CCN(CC2CN(c3ccc(S(=O)(=O)C4CC4)cc3)C2)CC1` (mixture of isomers) [compound 311, rac-(1R,2S)-2-(cyano(1-((1-(4-(cyclopropylsulfonyl)phenyl)azetidin-3-yl)methyl)piperidin-4-yl)(2-fluorophenyl)methyl) cyclopentyl acetate], the concentration for half-maximal inhibition (IC50) was found to be 5700 nM.
With `CCCCC(=O)c1cc2cc(CCN3CCC(C4(C5CCCC5)NCCc5ccccc54)CC3)ccc2n1C` (stereo not drawn) [compound 65, 1-(5-(2-(4-(1-cyclopentyl-1,2,3,4-tetrahydroisoquinolin-1-yl)piperidin-1-yl)ethyl)-1-methyl-1H-indol-2-yl)pentan-1-one] the figure was 2800 nM.
Regarding `CS(=O)(=O)c1ccc(N2CC(CN3CCC(C4(C5CCCC5)NCCc5ccccc54)CC3)C2)cc1` (stereo not drawn) [compound 132, 1-cyclopentyl-1-(1-((1-(4-(methylsulfonyl)phenyl)azetidin-3-yl)methyl)piperidin-4-yl)-1,2,3,4-tetrahydroisoquinoline], the IC50 came out at 77 nM.
To `CN1CCc2ccccc2C1(C1CCCC1)C1CCN(CCCOc2ccc(C#N)cc2)CC1` (stereo not drawn) [compound 28, 4-(3-(4-(1-cyclopentyl-2-methyl-1,2,3,4-tetrahydroisoquinolin-1-yl)piperidin-1-yl)propoxy)benzonitrile] belongs 379 nM; to `CNC(=O)O[C@H]1CCC[C@@H]1C(Cn1ccnc1)(c1ccccc1)C1CCN(C(=O)CCCc2ccc(C#N)cc2)CC1` (mixture of isomers) [compound 380, rac-(1S,2R)-2-(1-(1-(4-(4-cyanophenyl)butanoyl)piperidin-4-yl)-2-(1H-imidazol-1-yl)-1-phenylethyl)cyclopentyl methylcarbamate], 798 nM.
`CNC(=O)O[C@@H]1CCC[C@H]1C(C#N)(c1ccccc1)C1CCN(C2CCN(c3ccc(S(=O)(=O)c4ccccc4)cc3)CC2)CC1` (mixture of isomers) [compound 235, rac-(1R,2S)-2-(cyano(phenyl)(1′-(4-(phenylsulfonyl)phenyl)-[1,4′-bipiperidin]-4-yl)methyl)cyclopentyl methylcarbamate]: the concentration for half-maximal inhibition (IC50) worked out at 6200 nM.
